Laboratory results from patent publication US5360802A, “Benzodiazepine derivatives, compositions containing them and their use in therapy” (priority 1992, dated 1994).
Like-named read-outs stand apart in the source and are kept apart here.

What was measured:
CCK receptor (Pancreas) = molecular target: T1, CCK receptor (Pancreas) (Rattus norvegicus, UniProt P30551); assay: CCK Receptor Binding (Pancreas), displacement of 125I-CCK-8; parameters: species or system rat (male Sprague-Dawley); settings: 125I-CCK-8 50 pM, rat pancreas membranes; for IC50: 25° C., 2 hours
T1 construct: The whole pancreas was dissected free of fat tissue and was homogenized; from tissue; host or cells: rat whole pancreas (male Sprague-Dawley), membrane homogenate
T1 sequence (P30551 1-444): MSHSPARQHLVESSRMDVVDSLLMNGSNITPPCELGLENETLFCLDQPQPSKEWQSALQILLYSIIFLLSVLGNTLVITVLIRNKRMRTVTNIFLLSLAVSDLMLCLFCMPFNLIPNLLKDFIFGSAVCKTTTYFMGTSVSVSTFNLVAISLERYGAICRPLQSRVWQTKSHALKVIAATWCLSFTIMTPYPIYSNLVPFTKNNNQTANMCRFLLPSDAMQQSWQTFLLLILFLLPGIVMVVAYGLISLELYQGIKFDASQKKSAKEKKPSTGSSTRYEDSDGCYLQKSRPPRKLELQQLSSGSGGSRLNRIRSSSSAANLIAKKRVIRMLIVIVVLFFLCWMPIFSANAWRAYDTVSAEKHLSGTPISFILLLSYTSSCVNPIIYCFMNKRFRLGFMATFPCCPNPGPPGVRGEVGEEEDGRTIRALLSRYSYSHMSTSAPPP
Protocol: CCK-8 sulphated was radiolabelled with ^125 I-Bolton Hunter reagent (2000 Ci/mmole). Receptor binding was performed according to Chang and Lotti (Proc. Natl. Acad. Sci. 83, 4923-4926, 1986) with minor modifications.
Male Sprague-Dawley rats (150-200 g) were sacrificed by decapitation. The whole pancreas was dissected free of fat tissue and was homogenized in 25 volumes of ice-cold 10 mM N-2-hydroxyethyl-piperazine-N'-2-ethane sulphonic acid (HEPES) buffer with 0.1% soya bean trypsin inhibitor (pH 7.4 at 25° C. ) with a Kinematica Polytron. The homogenates were centrifuged at 47,800 g for 10 min. Pellets were resuspended in 10 volumes of binding assay buffer (20mM (HEPES)), 1 mM ethylene glycol-bis-(β-aminoethylether-N,N'-tetraacetic acid) (EGTA), 5 mM MgCl2, 150 mM NaCl, bacitracin 0.25 mg/ml, soya bean trypsin inhibitor 0.1 mg/ml, and bovine serum albumin 2 mg/ml pH 6.5 at 25° C.) using a Teflon (trademark). homogenizer, 15 strokes at 500 rpm. The homogenate was further diluted in binding assay buffer to give a final concentration of 0.5 mg original wet weight/1 ml buffer. […] All assays were run in.duplicate. The reaction mixtures were incubated at 25° C. for 2 hours and the reaction terminated by rapid filtration (Brandell 24 well cell harvester) over Whatman GF/C filters, washing 3×4 mls with ice-cold 100 Mm NaCl. The radioactivity on the filters was counted with a LKB gamma counter.
(§1) Drug displacement studies were performed with at least 10 concentrations of compounds of Formula I and the IC50 values were determined by regression analysis IC50 refers to the concentration of the compound required to inhibit 50% of specific binding of ^125 I-CCK-8.

CCK receptor (Brain) = molecular target: T2, CCK receptor (Brain) (Cavia porcellus, UniProt H0VZC5); assay: biochemical; format: binding, guinea pig (male Hartley), cortex
T2 construct: the cortex was removed and homogenized in 25 mL ice-cold 0.32M sucrose; from tissue; host or cells: guinea pig cortex (male Hartley), P2 membrane pellet
T2 sequence (H0VZC5 1-426): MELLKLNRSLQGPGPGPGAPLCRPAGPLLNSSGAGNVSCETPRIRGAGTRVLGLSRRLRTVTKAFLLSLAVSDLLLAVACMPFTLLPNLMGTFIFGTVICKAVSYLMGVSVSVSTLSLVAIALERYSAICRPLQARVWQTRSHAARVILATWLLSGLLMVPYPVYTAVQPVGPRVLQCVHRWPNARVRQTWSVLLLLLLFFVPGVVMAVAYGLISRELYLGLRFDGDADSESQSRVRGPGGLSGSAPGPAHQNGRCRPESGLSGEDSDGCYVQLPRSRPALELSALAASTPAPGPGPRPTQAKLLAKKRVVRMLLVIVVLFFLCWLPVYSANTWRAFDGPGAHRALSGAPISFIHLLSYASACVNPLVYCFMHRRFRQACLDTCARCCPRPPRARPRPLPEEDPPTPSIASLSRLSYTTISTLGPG
Protocol: CCK-8 sulphated was radiolabelled and the binding was performed according to the description for the pancreas method with minor modifications.
Male Hartley guinea pigs (300-500 g) were sacrificed by decapitation and the cortex was removed and homogenized in 25 mL ice-cold 0.32M sucrose. The homogenates were centrifuged at 1000 g for 10 minutes and the resulting supernatant was recentrifuged at 20,000 g for 20 minutes. The P2 pellet was resuspended in binding assay buffer (20 mM HEPES, 5 mM MgCl2, 0.25 mg/ml bacitracin, 1 mM EGTA pH 6.5 at 25° C. ), using a Teflon (trademark) homogenizer (5 strokes at 500 rpm) to give a final concentration of 10 mg original wet weight/1.2 ml buffer. […] All assays were run in duplicate. The reaction mixtures were incubated at 25° C. for 2 hours and then the reaction was terminated by rapid filtration (Brandell 24 well cell harvester) on Whatman GF/C filters with 3×5 ml washes of cold 100 mM NaCl. The radioactivity on the filters was counted with a LKB gamma counter.
as §1

Gastrin receptor = molecular target: T3, Gastrin receptor (Cavia porcellus, UniProt H0VZC5); assay: Gastrin Receptor Binding in Guinea Pig Gastric Glands, displacement of 125I-gastrin; parameters: species or system guinea pig (male Hartley); settings: 125I-gastrin 0.1 nM, 25° C., 30 minutes
T3 construct: from tissue; host or cells: guinea pig gastric mucosal glands (male Hartley), isolated with collagenase
T3 sequence (H0VZC5 1-426): T2 sequence (H0VZC5 1-426)
Protocol: Gastrin antagonist activity of compounds of Formula I was determined using the following assay.
Guinea pig gastric mucosal glands were prepared by the procedure of Chang et. al., Science, 230, 177-179 (1985) with slight modifications. […] The tissues were passed twice through a 5 ml syringe to liberate the gastric glands, and then filtered through Nitex (trademark) #202 gauge nylon mesh. The filtered glands were centrifuged at 272 g for 5 minutes and washed twice by resuspension in 25 ml buffer and centrifugation.
The washed guinea pig gastric glands prepared as above were resuspended in 25 ml of standard buffer. For binding studies, to 250 μl of gastric glands, 30 μl of buffer (for total binding) or gastrin (3 μM final concentration, for nonspecific binding) or test compound and 20 μl of ^125 I-gastrin (NEN, 2200 Ci/mmole, 0.1 nM final concentration) were added. All assays were run in triplicate. […] The reaction mixtures, after incubation at 25° C. for 30 minutes in a shaking water bath were rapidly filtered (Brandell 24 well cell harvester) over Whatman G/F B filters presoaked in assay buffer and immediately washed further with 3×4 ml of 100 mM ice cold NaCl. The radioactivity on the filters was measured using a LKB gamma counter.

[1] = 125I-CCK-8 50 pM, guinea pig cortex membranes, 25° C., 2 hours, read-out: IC50, 125I-CCK Brain

Structure (SMILES)	IC50 (CCK receptor (Brain); [1]) [nM]	IC50 (Gastrin receptor) [nM]	% (inhibition of 125I-CCK binding) Pancreas (CCK receptor (Pancreas); at 3 μM) [%]	IC50 (CCK receptor (Pancreas)) [nM]	IC50 (CCK receptor (Brain)) [nM]
CN1C(=O)C(NC(=O)Nc2cccc([S+](C)[O-])c2)N=C(C2CCCCC2)c2ccccc21 (racemic) [Example 42, N-[3(R,S)-5-Cyclohexyl-2,3-dihydro-1-methyl-2-oxo-1H-1,4-benzodiazepin-3-yl]N'-[3(R,S)-(methylsulphinyl)phenyl]urea]	–	–	–	18	15
CN1C(=O)C(NC(=O)Nc2cccc(C(=O)NS(=O)(=O)C(C)(C)C)c2)N=C(C2CCCCC2)c2ccccc21 (racemic) [Example 31, N-[3(R,S)-5-Cyclohexyl-2,3-dihydro-1-methyl-2-oxo-1H-1,4-benzodiazepin-3-yl]N'-[3-(1,1-dimethylethylsulphonylaminocarbonyl)phenyl]urea]	0.22	–	–	6.2	–

The next lines start with results.

IC50 (CCK receptor (Brain); [1]) [nM]	IC50 (Gastrin receptor) [nM]	% (inhibition of 125I-CCK binding) Pancreas (CCK receptor (Pancreas); at 3 μM) [%]	Structure (SMILES)	IC50 (CCK receptor (Pancreas)) [nM]	IC50 (CCK receptor (Brain)) [nM]
0.56	1.18	–	CN1C(=O)C(NC(=O)Nc2cccc(C(=O)NS(=O)(=O)C(C)(C)C)c2)N=C(C2CCCC2)c2ccccc21 (racemic) [Example 39, N-[3(R,S)-5-Cyclopentyl-2,3-dihydro-1-methyl-2-oxo-1H-1,4-benzodiazepin-3-yl]N'-[3-(1,1-dimethylethylsulphonylaminocarbonyl)phenylurea]	270	–
6.8	–	–	CN1C(=O)C(NC(=O)Nc2cccc(S(=O)(=O)Nc3cnccn3)c2)N=C(C2CCCCC2)c2ccccc21 (racemic) [Example 22, N-[3(R,S)-5-Cyclohexyl-2,3-dihydro-1-methyl-2-oxo-1H-1,4-benzodiazepin-3-yl] N'-[3-(2-pyrazinylaminosulphonyl)phenyl]urea]	70	–
–	–	27	CC(C)CN1C(=O)C(NC(=O)Nc2cccc(-c3nn[nH]n3)c2)N=C(C2CCCCC2)c2ccccc21 (racemic) [Example 2, N-[3(R,S)-5-Cyclohexyl-2,3-dihydro-1-(2-methylpropyl)-2-oxo-1H-1,4-benzodiazepin-3-yl] N'-[3-tetrazol-5-ylphenyl]urea]	–	–
